In assay [1] the test system is monocotyledonous and dicotyledonous weed and crop plants. Put plainly: Herbicidal post-emergence action (Example B), also comparison with known compounds. The format is in vivo. More on the design: key: % herbicidal effect: 0 = like control, 100 = plants died. Here is the method:
(§1) Seeds of monocotyledonous and dicotyledonous weed and crop plants are placed into sandy loam in wood fiber pots or in plastic pots, covered with soil and cultivated in a greenhouse, during the vegetation period also outdoors outside of the greenhouse, under good growth conditions. 2 to 3 weeks after sowing, the test plants are treated at the one- to three-leaf stage. The test compounds, formulated as wettable powders (WP) or liquid (EC), are, in various dosages at a water application rate of 300 l/ha (converted), with wetting agent (0.2 to 0.3%) added, sprayed onto the plants and the surface of the soil. 3 to 4 weeks after the treatment of the test plants, the effect of the preparations is rated visually in comparison to untreated controls (herbicidal effect in percent (%): 100% effect=the plants have died, 0% effect=like control plants).

Assay [2] concerns crop plants (cereal). Put plainly: Container trials with cereal in the greenhouse, mefenpyr 1 day prior to herbicide application (Example B, use of safeners). The format is in vivo. The following applies: without safener. Here is the method:
as §1, with “3 to 4 weeks after the treatment of the test plants, the effect of the preparations is rated visually in comparison to untreated controls (herbicidal effect in percent (%): 100% effect=the plants have died, 0% effect=like control plants).” left out
If it is additionally to be tested as to whether safeners can improve the plant compatibility of test substances in the case of crop plants, the following options are used for applying the safener: • seeds of the crop plants are, before sowing, dressed with the safener substance (the amount of safener stated in percent, based on the weight of the seed) • before the application of the test substances, the crop plants are sprayed with the safener at a certain application rate per hectare (usually 1 day before the application of the test substances) • the safener is applied together with the test substance as a tank mix (the amount of safener is stated in g/ha or as a ratio, based on the herbicide). • By comparing the effect of test substances on crop plants without or with safener treatment, it is possible to assess the effect of the safener substance.
Container Trials with Cereal in the Greenhouse
Mefenpyr 1 Day Prior to Herbicide Application

Where [3] appears, read: 10 days after application, 50 g of a.i./ha.
Setting [4] is: 10 days after application, 100 g of a.i./ha.
The mark [5] stands for this setting: 10 days after application, 200 g of a.i./ha.
Where [6] appears, read: 28 days after application, 50 g of a.i./ha.
[7] abbreviates: 28 days after application, 100 g of a.i./ha.
The mark [8] stands for this setting: 28 days after application, 25 g of a.i./ha.

This note sets out measurements from patent publication US8168832B2, “2,4,6-trialkylphenyl substituted cyclopentane-1,3-dione” (Bayer Cropscience AG, priority 2006, dated 2012).

In the case of `CCc1cc(C)cc(CC)c1C1=C(OC(=O)C(C)(C)C)[C@H]2CCCC[C@H]2C1=O` (relative stereo) [I-b-24], the ALOMY in assay [1] (100 g/ha) was determined as 80; in assay [1] (200 g/ha), 90. Also, the AVEFA in assay [1] (100 g/ha) is listed as 90; in assay [1] (200 g/ha), 95. The LOLMU came to 95 in assay [1] (100 g/ha) and 98 in assay [1] (200 g/ha). Moreover, the “Summer wheat observed (%)” value was 30% in assay [2] (10 days after application, 25 g of a.i./ha); 60% in assay [2] (setting [3]); 65% in assay [2] (setting [4]); 70% in assay [2] (setting [5]). The “Summer barley observed (%)” value in assay [2] (setting [3]) is listed as 20%; in assay [2] (setting [4]), 50%; in assay [2] (setting [5]), 60%.
In assay [1] (100 g/ha), `CCc1cc(C)cc(CC)c1C1=C(OC(=O)C(C)(C)C)[C@H]2CCCC[C@@H]2C1=O` (relative stereo) [I-b-26] had an ALOMY of 95, an AVEFA of 98 and an LOLMU of 70. In assay [1] (200 g/ha), the ALOMY was 97, the AVEFA was 98 and the LOLMU stood at 100. For the same molecule, in assay [2] (setting [6]), the “Summer barley observed (%)” value was 20% and the “Summer wheat observed (%)” value is 15%. In assay [2] (setting [7]), the “Summer barley observed (%)” value is 80% and the “Summer wheat observed (%)” value is given as 70%.
Turning to `CCc1cc(C)cc(CC)c1C1=C(O)C2CCCCC2C1=O` (stereo not shown) [I-a-9], in assay [1] (100 g/ha), the ALOMY was 98, the AVEFA is on record as 100 and the LOLMU is 99. Further, in assay [1] (200 g/ha), the ALOMY is given as 98, the AVEFA worked out at 100 and the LOLMU is 99. In assay [2] (setting [8]), the “Summer barley observed (%)” value is 20% and the “Summer wheat observed (%)” value is reported as 5%. In assay [2] (setting [6]), the “Summer barley observed (%)” value was 50% and the “Summer wheat observed (%)” value worked out at 60%. Further, the “Summer wheat observed (%)” value in assay [2] (setting [7]) is reported as 60%.
